Consider 12 molecules from patent US20110038885A1, “CHEMOKINE ANALOGS” (priority 2007, published 2011).

One assay deals with MCP-1. Briefly: In vitro chemotaxis (trans-well migration) v MCP-1. It counts as cell-based, human. The procedure, abridged:
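Trans-well migration toward IL-8 or MCP-1 placed below, with agent added to THP-1 cells (10^4-10^6) in the top well and incubation at 37° C (e.g. 4 hours). MTT absorbance at 595 nm, interpolated on a cell standard curve, gives migrated cell numbers; TGFβ-type negative control and cytotoxicity check included.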

The next assay concerns IL-8. Briefly: In vitro chemotaxis, inhibition v IL-8. It counts as cell-based, human. Set-up: concentration or dose not given beside the values. How it is done:
To determine whether an agent inhibits a chemokine-induced activity, such as macrophage recruitment, varying amounts of the agent are mixed with cells in the presence of a known chemoattractant. For example, a range of known concentrations of an agent, e.g., a chemokine peptide, is incubated with a defined number (e.g., 10^4-10^6) of human THP-1 monocyte cells in individual wells of the top compartment of a trans-well plate. Chemokine, at a concentration known to cause significant migration of THP-1 cells in the trans-well migration assay, is placed in the lower compartment of a trans-well plate. Cells are then incubated at 37° C. for a period sufficient to allow migration, e.g., 4 hours. After incubation, the cells are gently removed from the top of the filter with a pipette, 20 μl of 20 mM EDTA in simple PBS is added into each top well, and incubated for 20 minutes at 4° C. The filter is carefully flushed with media using a gentle flow, and removed. A standard curve consisting of a two-fold dilution series of THP-1 cells (in 29 μl) is placed to accurately quantify the number of cells that have migrated. Migrated cells are stained with 3 μl of MTT stock dye solution which is added directly into each well (5 mg/ml in RPMI-1640 without phenol red) (Sigma Chemical Co., St. Louis, Mo., USA) and incubated at 37° C. for 4 hours. The media is carefully aspirated from each well, and the converted dye is solubilized by 20 μl of DMSO. Absorbance of converted dye is measured at a wavelength of 595 nm using an ELISA plate reader. The number of migrated cells in each well is then determined by interpolation of the standard curve (see also Imai et al., J. Biol. Chem., 272:15036, 1997). Any method suitable for counting cells can be used, for example, counting with a hemocytometer, incubation of the cells with MTT (see above), or FACS analysis. A negative control assay is also performed, using TGFβ or another non-chemokine chemoattractant (e.g., IL1β or TNFα). To assess whether the agent is cytotoxic, the same concentrations of agent are incubated with THP-1 cells. Agents which 1) are not cytotoxic at levels which inhibit migration, 2) are ineffective at inhibiting the negative control-induced migration, and 3) reduce or inhibit chemokine-induced THP-1 migration, are agents which fall within the scope of the invention.

Bridge positions count the residues as written; N and C are the ends. Square brackets hold non-standard residues; d marks the D form. Peptide text beside a SMILES is read from it. * marks the point of attachment. Octanoyl = CCCCCCCC(=O)*; Dap = NC[C@H](N)C(=O)O; AEEA = NCCOCCOCC(=O)O; Aoc = NCCCCCCCC(=O)O

The molecule `CC[C@H](C)[C@@H]1NC(=O)[C@H](Cc2c[nH]c3ccccc23)NC(=O)[C@H](CCCCN)NC(=O)[C@H](CCC(N)=O)NC(=O)[C@H](CCCCN)NC(=O)[C@@H]2CCCN2C(=O)[C@H](CC(=O)O)NC(=O)[C@H](CC(C)C)NC(=O)[C@H](N)CSSC[C@@H](C(N)=O)NC(=O)[C@H](CCC(N)=O)NC1=O` [Example 39, c(D-Cys-Leu-Asp-Pro-Lys-Gln-Lys-Trp-Ile-Gln-Cys)-NH2] (H-[dC]LDPKQKWIQC-NH2; disulfide 1-11) displayed an EC50 with MCP-1 of over 1000 nM. The “v IL-8 inhibition (%)” value in the assay with IL-8 was 3.8%.

Regarding `CCCCCCCC(=O)NCCCC[C@H](NC(=O)COCCOCCNC(=O)[C@H]1CSSC[C@@H](N)C(=O)N[C@H](CCC(N)=O)C(=O)N[C@H]([C@H](C)CC)C(=O)N[C@H](Cc2c[nH]c3ccccc23)C(=O)N[C@H](CCCCN)C(=O)N[C@H](CCC(N)=O)C(=O)N[C@H](CCCCN)C(=O)N2CCC[C@@H]2C(=O)N[C@H](CC(=O)O)C(=O)N[C@H](CC(C)C)C(=O)N1)C(=O)O` [Example 151, c(D-Cys-D-Gln-D-Ile-D-Trp-D-Lys-D-Gln-D-Lys-D-Pro-D-Asp-D-Leu-D-Cys)-Doc-Lys(Nε-octanoyl)-OH] (H-[dC][dQ][dI][dW][dK][dQ][dK][dP][dD][dL][dC][AEEA]K(Octanoyl)-OH; disulfide 1-11), in the assay with MCP-1, the EC50 worked out at 28 nM. In addition, in the assay on IL-8, the “v IL-8 inhibition (%)” value is recorded as 103.7%.

In the assay with MCP-1, `CC[C@H](C)[C@@H]1NC(=O)[C@H](Cc2c[nH]c3ccccc23)NC(=O)[C@H](CCCCN)NC(=O)[C@H](CCC(N)=O)NC(=O)[C@H](CCCCN)NC(=O)[C@@H]2CCCN2C(=O)[C@H](CC(=O)O)NC(=O)[C@H](CC(C)C)NC(=O)[C@H](N)CSSC[C@@H](C(=O)N[C@@H](CN)C(N)=O)NC(=O)[C@H](CCC(N)=O)NC1=O` [Example 35, c(D-Cys-Leu-Asp-Pro-Lys-Gln-Lys-Trp-Ile-Gln-Cys)-Dap-NH2] (H-[dC]LDPKQKWIQC[Dap]-NH2; disulfide 1-11) returned an EC50 of 50 nM. Moreover, the “v IL-8 inhibition (%)” value in the assay on IL-8 was 91.9%.

`CC[C@@H](C)[C@H]1NC(=O)[C@@H](CCC(N)=O)NC(=O)[C@H](N)CSSC[C@H](C(=O)N[C@@H](C(=O)N[C@H](CCC(=O)O)C(=O)NCCCCCCCC(=O)O)C(C)C)NC(=O)[C@@H](CC(C)C)NC(=O)[C@@H](CC(=O)O)NC(=O)[C@H]2CCCN2C(=O)[C@@H](CCCCN)NC(=O)[C@@H](CCC(N)=O)NC(=O)[C@@H](CCCCN)NC(=O)[C@@H](Cc2c[nH]c3ccccc23)NC1=O` [Example 141, c(D-Cys-D-Gln-D-Ile-D-Trp-D-Lys-D-Gln-D-Lys-D-Pro-D-Asp-D-Leu-D-Cys)-D-Val-D-Glu-Aoc-OH] (H-[dC][dQ][dI][dW][dK][dQ][dK][dP][dD][dL][dC][dV][dE][Aoc]-OH; disulfide 1-11): in the assay on MCP-1, the EC50 is 330 nM. For the same molecule, the “v IL-8 inhibition (%)” value in the assay with IL-8 amounted to 27.5%.

As to `CC[C@@H](C)[C@H]1NC(=O)[C@@H](CCC(N)=O)NC(=O)[C@H](N)CSSC[C@H](C(=O)NCCOCCOCC(=O)NCCCCCCCC(=O)O)NC(=O)[C@@H](CC(C)C)NC(=O)[C@@H](CC(=O)O)NC(=O)[C@H]2CCCN2C(=O)[C@@H](CCCCN)NC(=O)[C@@H](CCC(N)=O)NC(=O)[C@@H](CCCCN)NC(=O)[C@@H](Cc2c[nH]c3ccccc23)NC1=O` [Example 138, c(D-Cys-D-Gln-D-Ile-D-Trp-D-Lys-D-Gln-D-Lys-D-Pro-D-Asp-D-Leu-D-Cys)-Doc-Aoc-OH] (H-[dC][dQ][dI][dW][dK][dQ][dK][dP][dD][dL][dC][AEEA][Aoc]-OH; disulfide 1-11), a half-maximal effect in the assay on MCP-1 (EC50) was put at 20 nM. In addition, in the assay on IL-8, the “v IL-8 inhibition (%)” value came out at 98.4%.

Consider `CCCCCCCC(=O)NCCCC[C@H](NC(=O)[C@H]1CSSC[C@@H](N)C(=O)N[C@H](CCC(N)=O)C(=O)N[C@H]([C@H](C)CC)C(=O)N[C@H](Cc2c[nH]c3ccccc23)C(=O)N[C@H](CCCCN)C(=O)N[C@H](CCC(N)=O)C(=O)N[C@H](CCCCN)C(=O)N2CCC[C@@H]2C(=O)N[C@H](CC(=O)O)C(=O)N[C@H](CC(C)C)C(=O)N1)C(=O)O` [Example 149, c(D-Cys-D-Gln-D-Ile-D-Trp-D-Lys-D-Gln-D-Lys-D-Pro-D-Asp-D-Leu-D-Cys)-Lys(Nε-octanoyl)-OH] (H-[dC][dQ][dI][dW][dK][dQ][dK][dP][dD][dL][dC]K(Octanoyl)-OH; disulfide 1-11), for which, in the assay on MCP-1, a half-maximal response (EC50) required 66 nM. Also, the “v IL-8 inhibition (%)” value in the assay with IL-8 turned out to be 106.2%.

In the assay with MCP-1, `CC[C@H](C)[C@@H]1NC(=O)[C@H](Cc2c[nH]c3ccccc23)NC(=O)[C@H](CCCCN)NC(=O)[C@H](CCC(N)=O)NC(=O)[C@H](CCCCN)NC(=O)[C@@H](NC(C)=O)CSSC[C@@H](C(=O)N2CCC[C@@H]2C(=O)N[C@H](CC(=O)O)C(=O)N[C@H](CC(C)C)C(N)=O)NC(=O)[C@H](CCC(N)=O)NC1=O` [Example 157, Ac-c(Cys-Lys-Gln-Lys-Trp-Ile-Gln-Cys)-D-Pro-D-Asp-D-Leu-NH2] (Ac-CKQKWIQC[dP][dD][dL]-NH2; disulfide 1-8) showed an EC50 of over 1000 nM. For the same molecule, the “v IL-8 inhibition (%)” value in the assay on IL-8 is reported as −15%.

In turn, `CC[C@H](C)[C@@H]1NC(=O)[C@H](Cc2c[nH]c3ccccc23)NC(=O)[C@H](CCCCN)NC(=O)[C@H](CCC(N)=O)NC(=O)[C@H](CCCCN)NC(=O)[C@@H]2CCCN2C(=O)[C@@H](CC(=O)O)NC(=O)[C@H](CC(C)C)NC(=O)[C@@H](NC(C)=O)CSSC[C@@H](C(N)=O)NC(=O)[C@H](CCC(N)=O)NC1=O` [Example 31, Ac-c(Cys-Leu-D-Asp-Pro-Lys-Gln-Lys-Trp-Ile-Gln-Cys)-NH2] (Ac-CL[dD]PKQKWIQC-NH2; disulfide 1-11) gave an EC50 in the assay with MCP-1 of 50 nM. The “v IL-8 inhibition (%)” value in the assay on IL-8 worked out at 95.8%.

For `CC[C@H](C)[C@@H]1NC(=O)[C@@H](Cc2c[nH]c3ccccc23)NC(=O)[C@H](CCCCN)NC(=O)[C@H](CCC(N)=O)NC(=O)[C@H](CCCCN)NC(=O)[C@@H]2CCCN2C(=O)[C@H](CC(=O)O)NC(=O)[C@H](CC(C)C)NC(=O)[C@@H](NC(C)=O)CSSC[C@@H](C(N)=O)NC(=O)[C@H](CCC(N)=O)NC1=O` [Example 26, Ac-c(Cys-Leu-Asp-Pro-Lys-Gln-Lys-D-Trp-Ile-Gln-Cys)-NH2] (Ac-CLDPKQK[dW]IQC-NH2; disulfide 1-11), it took 20 nM to reach a half-maximal effect with MCP-1 (EC50). Further, the “v IL-8 inhibition (%)” value in the assay on IL-8 is 94.9%.

Regarding `CC[C@@H](C)[C@H]1NC(=O)[C@@H](CCC(N)=O)NC(=O)[C@H](N)CSSC[C@H](C(=O)N[C@H](C(=O)N[C@@H](CCC(=O)O)C(=O)NCCCCCCCC(=O)O)[C@@H](C)CC)NC(=O)[C@@H](CC(C)C)NC(=O)[C@@H](CC(=O)O)NC(=O)[C@H]2CCCN2C(=O)[C@@H](CCCCN)NC(=O)[C@@H](CCC(N)=O)NC(=O)[C@@H](CCCCN)NC(=O)[C@@H](Cc2c[nH]c3ccccc23)NC1=O` [Example 140, c(D-Cys-D-Gln-D-Ile-D-Trp-D-Lys-D-Gln-D-Lys-D-Pro-D-Asp-D-Leu-D-Cys)-Ile-Glu-Aoc-OH] (H-[dC][dQ][dI][dW][dK][dQ][dK][dP][dD][dL][dC]IE[Aoc]-OH; disulfide 1-11), in the assay with MCP-1, the EC50 was 400 nM. Moreover, the “v IL-8 inhibition (%)” value in the assay with IL-8 turned out to be 43.4%.

In turn, `CC[C@H](C)[C@@H]1NC(=O)[C@H](Cc2c[nH]c3ccccc23)NC(=O)[C@H](CCCCN)NC(=O)[C@H](CCC(N)=O)NC(=O)[C@H](CCCCN)NC(=O)[C@@H]2CCCN2C(=O)[C@@H](NC(C)=O)CSSC[C@@H](C(=O)N[C@H](CC(=O)O)C(=O)N[C@H](CC(C)C)C(N)=O)NC(=O)[C@H](CCC(N)=O)NC1=O` [Example 158, Ac-c(Cys-Pro-Lys-Gln-Lys-Trp-Ile-Gln-Cys)-D-Asp-D-Leu-NH2] (Ac-CPKQKWIQC[dD][dL]-NH2; disulfide 1-9) showed an EC50 in the assay with MCP-1 of over 1000 nM. For the same molecule, in the assay with IL-8, the “v IL-8 inhibition (%)” value was −17.9%.

In the assay on MCP-1, `CC[C@H](C)[C@@H]1NC(=O)[C@H](Cc2c[nH]c3ccccc23)NC(=O)[C@H](CCCCN)NC(=O)[C@H](CCC(N)=O)NC(=O)[C@H](CCCCN)NC(=O)[C@@H](N)CSSC[C@@H](C(N)=O)NC(=O)[C@H](CCC(N)=O)NC1=O` [Example 49, c(Cys-Lys-Gln-Lys-Trp-Ile-Gln-Cys)-NH2] (H-CKQKWIQC-NH2; disulfide 1-8) returned a half-maximal effective concentration (EC50) of 100 nM. Besides, the “v IL-8 inhibition (%)” value in the assay on IL-8 turned out to be 72.6%.

The EC50 is the concentration at which the effect is half-maximal.
